Experimental data taken from US9856273B2, “ETP derivatives” (priority 2012, dated 2018).
“Also recorded” adds a separate entry of the source.

Legend:
[1] = test system: transferases (HMT, HAT, DNMT); test: Screen against a number of transferases; type: biochemical, human
Method: (§1) For histone methyltranferase (HMT), DNA methyltransferase (DNMT) and Histone acetyltransferase (HAT) assays in vitro, human recombinant HMT, DNMT and HAT proteins were mixed with substrates in the reaction buffer (50 mM Tris-HCl (pH 8.5), 5 mM MgCl2, 50 mM NaCl, 1 mM DTT, 1 mM PMSF, 1% DMSO), including histone H3, histone H4, nucleosomes, or core histone. Racemic ETP69, S enantiomer or DMSO as a vehicle control was preincubated in the mixture. Next, for HMTs and DNMT assays, […] of ^3H-SAM was added to the mixture for the reaction initiation and conversion of ^3H-SAM+histone L-lysine to SAH+histone N^6-[methyl-^3H]-L-lysine was monitored with miniatured radioligand-filter binding platform. For p300 HAT assays, the conversion of acetyl-^3H-acetyl coenzyme A to coenzyme A was monitored. The reactions were carried out at 30° C. IC50 values were determined using Excel and GraphPad Prism software.

p53 tumor suppressor = test: Western blot, induction of p53; type: cell-based, human; settings: A2058, DU145, A549 and SKOV3 cells (SKOV3 cells do not express p53 protein)
Method: (§2) Induction of p16, p53, p21waf1 and p27 (FIGS. 8 and 9): Western blot analyses were performed with specific antibodies. Briefly, human A2058 melanoma, DU145 prostate, A549 non-small lung and SKOV3 ovarian cancer cells were treated with ETP69. Whole-cell lysates (40 […]g) were resolved by SDS-PAGE. Primary specific antibodies to p53, p21^WAF1, p27(Kip1), p16 and Actin were diluted in PBS (pH 7.5) with 5% (w/v) nonfat milk and 0.1% (v/v) Tween-20 over night at 4° C. Horseradish peroxidase-conjugated secondary antibodies were incubated in PBS (pH 7.5) with 5% (w/v) nonfat milk and 0.1% (v/v) Tween-20 for 1 h at room temperature. Positive immuno-reactive proteins were detected using the ECL system (Pierce, Rockford, Ill.).

[2] = test system: Panc1 pancreatic cancer cells; test: Senescence assay (senescence-associated beta-galactosidase activity); type: cell-based; settings: 5 days, compared to DMSO
Method: Senescence Assay: Panc1 cells were seeded at a density of 3×10^4 cells per well in a 24-well plate. The cells were then treated with 100 nM ETP69 or 0.3% DMSO (vehicle control). Panc-1 and SU.86.86 cells expressing SUV39H1 shRNA or a non-targeting (NT) control shRNA were also seeded in 24-well plates at a density of 3×10^4 cells/well and 5×10^4 cells/well, respectively. After 5 days, cells were washed with PBS, fixed with 3% formaldehyde/PBS, and stained over night at 37° C. with a freshly prepared staining solution (1 mg/ml 5-bromo-4-chloro-3-indolyl b-D-galactoside in 40 mM citric acid/sodium phosphate, pH 6.0, 5 mM potassium ferrocyanide, 5 mM potassium ferricyanide, 150 mM NaCl, 2 mM MgCl2). The blue stain indicates senescence-associated β-galactosidase activity. Photographs were taken with a 100× or a 20× objective under brightfield illumination using an INFINITY2 digital CCD camera (Lumenera, Canada) mounted on a Nikon Eclipse TS100 inverted microscope.

p53 = test: QPCR of p53 expression in Panc1 cells; type: cell-based; settings: 100 nM-500 nM
Source text: QPCR: Total RNA was isolated from cells using the RNeasy kit (Qiagen). The Tetro cDNA kit (Bioline) and SensiFast Probe kit (Bioline) were used to reverse-transcribe and amplify total RNA according to the manufacturer's protocol. The ProbeFinder software (Roche Applied Science) was used to design the primer sets for SUV39H1, p53 and GAPDH and to select the respective probes from the Universal ProbeLibrary (Roche Applied Science). Probe #13 and the following primers were used for the SUV39H1 assay: 5′ […] (SEQ ID NO: 1) and 5′ […] (SEQ ID NO:2). Probe #21 and the following primers were used for the p53 assay: 5′ […] (SEQ ID NO:3) and 5′ […] (SEQ ID NO:4). Probe #60 and the following primers were used for the GAPDH assay: 5′ agccacatcgctcagacac (SEQ ID NO:5) and 5′ gcccaatacgaccaaatcc (SEQ ID NO:6). All samples were run in triplicates. Amplifications were performed on a Bio-Rad CFX96 Touch Multiple-Color Real-time PCR Detection System. The data were normalized to the GAPDH expression and the relative expression levels were calculated using the 2^−ΔΔCt method.

[3] = test system: A549 lung cancer SQ xenografts; type: in vivo, mouse; settings: A549 xenograft, 10 mg/kg orally once daily for 31 days
Method: Human A549 non-small lung cancer cells (5×10^6) were resuspended in serum-free DMEM medium and Matrigel (ration of 1:1) and subcutaneously injected into the flank of 5-6 weeks old female NOD/SCID/IL-2rg(ko)(NSG). When palpable tumor sizes reached at approximately 50 mm^3, mice were divided into two groups (vehicle=10, treatment=10). Then, ETP69 was orally administered at 10 mg/kg with vehicle (10% DMSO+30% Solutol+60% saline), once daily for 31 days. Tumor volumes were calculated by the formula 1/2a×b^2, where a is the long diameter, and b is the short diameter. Tumor volumes correlate with tumor weights. The statistical significance of group differences was analyzed using a Student's t-test with the two-tailed distribution. P values less than 0.05 were considered statistically significant.

[4] = test system: p21WAF1 cyclin-dependent kinase inhibitor 1; test: Western blot, induction of p21WAF1; type: cell-based, human; settings: A2058, DU145, A549 and SKOV3 cells
Method: as §2

G9a = G9a (Homo sapiens, UniProt Q96KQ7); test: Histone methyltransferase (HMT) assay in vitro; type: biochemical
Method: as §1

SUV39H1 = SUV39H1 (Homo sapiens, UniProt O43463); test: Histone methyltransferase (HMT) assay in vitro; type: biochemical
Method: as §1

[5] = test system: HCC38 triple negative breast cancer cells; test: Cell viability assay; type: cell-based
p16 tumor suppressor = test: Western blot, induction of p16; type: cell-based, human; settings: DU145 prostate cancer cells and A2058 melanoma cells
Method: as §2

[6] = test system: HCC1937 triple negative breast cancer cells; test: Cell viability assay; type: cell-based
[7] = test system: SKOV3 ovarian cancer cells; test: Annexin V-FITC apoptosis assay; type: cell-based, human; settings: 48 h
Method: Apoptosis Determinations (FIG. 11): Apoptosis assays of human SKOV3 ovarian cancer cells based on […] were carried out using Annexin V-FITC. Briefly, cells were seeded in 6-well plates, incubated overnight at 37° C. in 5% (v/v) CO2 and exposed to ETP69 in a dose-dependent manner for 48 h. DMSO was used as the vehicle control. Cells were analyzed using a FACScan flow cytometer to quantify fluorescence. Apoptotic cells were defined as Annexin V-FITC positive. Each experiment was performed in quadruplicate.

Chain of SUV39H1 (O43463 whole entry): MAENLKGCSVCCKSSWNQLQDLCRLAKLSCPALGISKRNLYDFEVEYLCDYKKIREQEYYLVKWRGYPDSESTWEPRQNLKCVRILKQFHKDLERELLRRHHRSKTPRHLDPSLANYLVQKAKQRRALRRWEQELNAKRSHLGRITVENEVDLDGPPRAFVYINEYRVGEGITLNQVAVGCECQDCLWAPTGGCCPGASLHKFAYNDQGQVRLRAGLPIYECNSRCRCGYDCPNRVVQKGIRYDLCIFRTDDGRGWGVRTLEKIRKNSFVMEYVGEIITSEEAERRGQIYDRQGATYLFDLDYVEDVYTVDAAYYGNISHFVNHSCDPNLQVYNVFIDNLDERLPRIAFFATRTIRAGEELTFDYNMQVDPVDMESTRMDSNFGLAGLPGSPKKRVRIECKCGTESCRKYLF
Chain of G9a (Q96KQ7 whole entry): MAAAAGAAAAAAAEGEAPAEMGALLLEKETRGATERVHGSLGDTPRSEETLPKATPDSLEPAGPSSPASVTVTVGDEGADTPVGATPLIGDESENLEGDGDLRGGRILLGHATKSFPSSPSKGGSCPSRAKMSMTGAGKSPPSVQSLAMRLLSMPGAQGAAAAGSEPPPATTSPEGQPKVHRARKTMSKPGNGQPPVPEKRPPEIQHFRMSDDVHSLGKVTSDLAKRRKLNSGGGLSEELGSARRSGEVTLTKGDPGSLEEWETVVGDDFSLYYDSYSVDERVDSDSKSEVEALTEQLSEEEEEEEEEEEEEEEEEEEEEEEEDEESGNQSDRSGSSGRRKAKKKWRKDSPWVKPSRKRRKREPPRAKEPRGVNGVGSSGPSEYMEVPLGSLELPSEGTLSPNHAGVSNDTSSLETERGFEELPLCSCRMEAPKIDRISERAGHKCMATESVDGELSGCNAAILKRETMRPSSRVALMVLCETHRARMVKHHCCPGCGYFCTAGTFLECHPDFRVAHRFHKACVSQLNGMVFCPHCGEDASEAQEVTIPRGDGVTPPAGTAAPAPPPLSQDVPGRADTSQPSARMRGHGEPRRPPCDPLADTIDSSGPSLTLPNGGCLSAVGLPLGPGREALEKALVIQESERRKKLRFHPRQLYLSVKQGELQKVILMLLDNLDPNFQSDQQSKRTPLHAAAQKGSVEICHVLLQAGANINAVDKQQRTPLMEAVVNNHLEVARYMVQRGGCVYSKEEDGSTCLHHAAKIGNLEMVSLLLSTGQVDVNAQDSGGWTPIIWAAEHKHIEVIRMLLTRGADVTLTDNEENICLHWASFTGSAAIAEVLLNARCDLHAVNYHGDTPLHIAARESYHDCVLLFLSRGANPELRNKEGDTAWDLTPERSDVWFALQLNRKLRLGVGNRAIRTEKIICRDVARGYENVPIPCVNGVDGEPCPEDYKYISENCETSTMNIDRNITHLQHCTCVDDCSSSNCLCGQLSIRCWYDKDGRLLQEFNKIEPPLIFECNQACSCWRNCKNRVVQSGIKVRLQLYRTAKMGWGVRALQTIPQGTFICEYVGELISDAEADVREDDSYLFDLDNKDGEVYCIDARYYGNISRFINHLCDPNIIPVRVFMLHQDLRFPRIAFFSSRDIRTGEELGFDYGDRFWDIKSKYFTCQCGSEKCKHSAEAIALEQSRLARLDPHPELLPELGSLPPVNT

Compound: CN1C(=O)[C@@]23C[C@](C)(C#N)[C@H](c4ccc5c(c4)OCO5)N2C(=O)[C@]1(C)SS3 (racemic) [ETP69, Rac-(3S,6S,7S,8aS)-6-(Benzo[d][1,3]dioxol-5-yl)-2,3,7-trimethyl-1,4-dioxohexahydro-6H-3,8a-epidithiopyrrolo[1,2-a]pyrazine-7-carbonitrile]
- potency against several transferases compared with chaetocin [1]: about ten times more potency
- selectivity for histone methyltransferases (SUV39H1; G9a) over histone acetylases (p300) and DNA methyl transferases (DNMT1) [1]: selective
- induction of p53 (p53 tumor suppressor): induces
- senescence-associated beta-galactosidase activity [2]: increased senescence-associated beta-galactosidase activity
- up-regulation of p53 (p53): ≥ 3 fold
- toxicity symptoms [3]: no observable toxicity symptoms
- tumor volume [3]: decreased
- tumor weight [3]: decreased
- induction of p21WAF1 [4]: induces
- inhibition of HMT G9a (G9a): selectively inhibits; also recorded: specific inhibition
- inhibition of HMT SUV39H1 (SUV39H1): selectively inhibits; also recorded: specific inhibition
- viability inhibition [5]: viability inhibition
- induction of p16 tumor suppressor (p16 tumor suppressor): induces
- viability inhibition [6]: viability inhibition
- apoptosis [7]: induces apoptosis
